Assay results reported in ChEMBL document CHEMBL4229365, “Synthesis of novel ring-contracted artemisinin dimers with potent anticancer activities” (Eur J Med Chem, 2018).
The source made the active and inactive calls. The rule behind the calls is not given here.

Key:
PC-12 [1] = assay: Induction of apoptosis in rat PC12 cells assessed as increase in Bad protein expression up to 5 uM after 72 hrs by Western blot analysis; assay type: functional, cell-based
PC-12 [2] = assay: Cell cycle arrest in rat PC12 cells assessed as accumulation at G2 phase at 3 uM after 24 hrs by propidium iodide/RNase A staining-based flow cytometric analysis (reference value: 11.63%); assay type: functional
PC-12 [3] = assay: Antiproliferative activity against rat PC12 cells after 72 hrs by CCK-8 assay; assay type: functional, cell-based; conditions: PC-12, 72 h
HCT-116 = assay: Antiproliferative activity against human HCT116 cells after 72 hrs by CCK-8 assay; assay type: functional, cell-based; conditions: HCT-116, 72 h
PC-12 [4] = assay: Cell cycle arrest in rat PC12 cells assessed as accumulation at S phase at 1 uM after 24 hrs by propidium iodide/RNase A staining-based flow cytometric analysis (reference value: 30.30%); assay type: functional
PC-12 [5] = assay: Cell cycle arrest in rat PC12 cells assessed as accumulation at G1 phase at 3 uM after 24 hrs by propidium iodide/RNase A staining-based flow cytometric analysis (reference value: 58.07%); assay type: functional
A549 = assay: Antiproliferative activity against human A549 cells after 72 hrs by CCK-8 assay; assay type: functional, cell-based; conditions: A549, 72 h
[6] = Half life in human liver microsomes at 1.11 uM preincubated for 10 mins followed by NADPH addition by LC-MS/MS analysis; assay type: ADME, microsome
PC-12 [7] = assay: Cell cycle arrest in rat PC12 cells assessed as accumulation at S phase at 3 uM after 24 hrs by propidium iodide/RNase A staining-based flow cytometric analysis (reference value: 30.30%); assay type: functional
[8] = Stability of the compound in air at 60 degC after 24 hrs; assay type: physicochemical
PC-12 [9] = assay: Cell cycle arrest in rat PC12 cells assessed as accumulation at G1 phase at 5 uM after 24 hrs by propidium iodide/RNase A staining-based flow cytometric analysis (reference value: 58.07%); assay type: functional
PC-12 [10] = assay: Induction of apoptosis in rat PC12 cells assessed as nuclear condensation up to 3.13 uM after 24 hrs by Hoechst 33258 staining-based fluorescence microscopic method; assay type: functional, cell-based
PC-12 [11] = assay: Induction of apoptosis in rat PC12 cells assessed as increase in Bax protein expression up to 5 uM after 72 hrs by Western blot analysis; assay type: functional, cell-based
PC-12 [12] = assay: Cell cycle arrest in rat PC12 cells assessed as accumulation at G1 phase at 1 uM after 24 hrs by propidium iodide/RNase A staining-based flow cytometric analysis (reference value: 58.07%); assay type: functional
L02 = assay: Antiproliferative activity against human L02 cells after 72 hrs by CCK-8 assay; assay type: cell-based; conditions: L02, 72 h
PC-12 [13] = assay: Cell cycle arrest in rat PC12 cells assessed as accumulation at G2 phase at 5 uM after 24 hrs by propidium iodide/RNase A staining-based flow cytometric analysis (reference value: 11.63%); assay type: functional
PC-12 [14] = assay: Cell cycle arrest in rat PC12 cells assessed as accumulation at S phase at 5 uM after 24 hrs by propidium iodide/RNase A staining-based flow cytometric analysis (reference value: 30.30%); assay type: functional
PC-12 [15] = assay: Induction of apoptosis in rat PC12 cells assessed as increase in cleaved caspase3 expression level after 72 hrs by Western blot analysis; assay type: functional, cell-based
PC-12 [16] = assay: Induction of apoptosis in rat PC12 cells assessed as decrease in Bcl-xL level up to 5 uM after 72 hrs by Western blot analysis; assay type: functional, cell-based
PC-12 [17] = assay: Cell cycle arrest in rat PC12 cells assessed as accumulation at G2 phase at 1 uM after 24 hrs by propidium iodide/RNase A staining-based flow cytometric analysis (reference value: 11.63%); assay type: functional
SH-SY5Y = assay: Antiproliferative activity against human SH-SY5Y cells after 72 hrs by CCK-8 assay; assay type: functional, cell-based
PC-12 [18] = assay: Cell cycle arrest in rat PC12 cells assessed as accumulation at G1 phase after 24 hrs by propidium iodide/RNase A staining-based flow cytometric analysis; assay type: functional
A-375 = assay: Antiproliferative activity against human A375 cells after 72 hrs by CCK-8 assay; assay type: functional, cell-based; conditions: A-375, 72 h
PC-12 [19] = assay: Induction of apoptosis in rat PC12 cells assessed as apoptotic cells up to 3.13 uM after 24 hrs by Annexin V-FITC/propidium iodide staining-based flow cytometric analysis (reference value: 6.56%); assay type: functional
[20] = Clearance in human liver microsomes at 1.11 uM preincubated for 10 mins followed by NADPH addition by LC-MS/MS analysis; assay type: ADME, microsome; conditions: read-out: CLH
PC-12 [21] = assay: Induction of apoptosis in rat PC12 cells assessed as nuclear fragmentation up to 3.13 uM after 24 hrs by Hoechst 33258 staining-based fluorescence microscopic method; assay type: functional, cell-based
PC-12 [22] = assay: Induction of apoptosis in rat PC12 cells assessed as increase in cleaved caspase9 expression level after 72 hrs by Western blot analysis; assay type: functional, cell-based

Row | Structure (SMILES) | IC50 (PC-12 [3]) | IC50 (HCT-116) | IC50 (A549) | half-life at 1.11 µM [6] | Stability [8] | IC50 (L02) | IC50 (SH-SY5Y) | IC50 (A-375) | microsomal CLint at 1.11 µM [20] | other results
1 | C[C@@H]1CC[C@@H]2[C@]34OO[C@](C)(CC[C@@H]13)O[C@H]4O[C@]2(C)COP(=O)(OC[C@@]1(C)O[C@@H]2O[C@@]3(C)CC[C@H]4[C@H](C)CC[C@@H]1[C@@]24OO3)Oc1ccccc1 | 1.56 µM | 6.61 µM | 6.37 µM | 18.3 min | Stable | 10.3 µM | 3.48 µM | 5.96 µM | 54 µL/min/mg | Activity (PC-12 [1]): Active; Activity (PC-12 [2]): 6.81%; Activity (PC-12 [4]): 14.7%; Activity (PC-12 [5]): 79.4%; Activity (PC-12 [7]): 13.79%; Activity (PC-12 [9]): 86.06%; Activity (PC-12 [10]): Active; Activity (PC-12 [11]): Active; Activity (PC-12 [12]): 76.54%; Activity (PC-12 [13]): 3.61%; Activity (PC-12 [14]): 10.33%; Activity (PC-12 [15]): Dose-dependent effect; Activity (PC-12 [16]): Active; Activity (PC-12 [17]): 8.77%; Activity (PC-12 [18]): Dose-dependent effect; Activity (PC-12 [19]): 6.56 - 31.04%; Activity (PC-12 [21]): Active; Activity (PC-12 [22]): Dose-dependent effect
2 | C[C@@H]1CC[C@H]2[C@@H](O)[C@H](OC(=O)CCC(=O)O[C@@H]3O[C@@H]4O[C@@]5(C)CC[C@H]6[C@H](C)CC[C@@H]([C@H]3O)[C@@]46OO5)O[C@@H]3O[C@@]4(C)CC[C@@H]1[C@]32OO4 | > 50 µM | 36.3 µM | 45.7 µM | 8 min | Stable | > 50 µM | > 50 µM | 33.5 µM | 124 µL/min/mg | 
